Experimental data taken from patent US20250195521A1 (Revolution Medicines, Inc., priority 2020, published 2025).

Legend:
Type in all cases: biochemical
KRAS G13C = KRAS G13C (Homo sapiens (Human), UniProt P01116+P62937, G13C); test: Ras-Raf disruption/FRET/MOA assay, KRAS G13C; details: read-out: KRAS G13C FRET IC50
Description: (§1) Disruption of B-Raf Ras-Binding Domain (BRAF^RBD) Interaction with K-Ras by Compounds of the Invention (Also Called a FRET Assay or an MOA Assay)
(§2) Note—The following protocol describes a procedure for monitoring disruption of K-Ras G12C (GMP-PNP) binding to BRAF^RBD by a compound of the invention. This protocol may also be executed substituting other Ras proteins or nucleotides, such as K-Ras G12D and K-Ras G13D.
(§3) The purpose of this biochemical assay was to measure the ability of test compounds to facilitate ternary complex formation between a nucleotide-loaded K-Ras isoform and Cyclophilin A; the resulting ternary complex disrupts binding to a BRAF^RBD construct, inhibiting K-Ras signaling through a RAF effector. Data is reported as IC50 values.
(§4) In assay buffer containing 25 mM HEPES pH 7.3, 0.002% Tween20, 0.1% BSA, 100 mM NaCl and 5 mM MgCl2, tagless Cyclophilin A, His6-K-Ras-GMPPNP, and GST-BRAF^RBD were combined in a 384-well assay plate at final concentrations of 25 μM, 12.5 nM, and 50 nM, respectively. Compound was present in plate wells as a 10-point 3-fold dilution series starting at a final concentration of 30 μM. After incubation at 25° C. for 3 hours, a mixture of anti-His Eu—W1024 and anti-GST allophycocyanin was then added to assay sample wells at final concentrations of 10 nM and 50 nM, respectively, and the reaction incubated for an additional 1.5 hours. […] Compounds that facilitate disruption of a K-Ras: RAF complex were identified as those eliciting a decrease in the TR-FRET ratio relative to DMSO control wells.

KRAS G13D = KRAS G13D (Homo sapiens (Human), UniProt P01116+P62937, G13D); test: Ras-Raf disruption/FRET/MOA assay, KRAS G13D; details: read-out: KRAS G13D FRET IC50
Description: as §1, §2, §3, §4

KRAS G12S = KRAS G12S (Homo sapiens (Human), UniProt P01116+P62937, G12S); test: Ras-Raf disruption/FRET/MOA assay, KRAS G12S; details: read-out: KRAS G12S FRET IC50
Description: as §1, §2, §3, §4

KRAS WT = KRAS WT (Homo sapiens (Human), UniProt P01116+P62937); test: Ras-Raf disruption/FRET/MOA assay, KRAS WT; details: read-out: KRAS WT FRET IC50
Description: as §1, §2, §3, §4

KRAS G12D = KRAS G12D (Homo sapiens (Human), UniProt P01116+P62937, G12D); test: Ras-Raf disruption/FRET/MOA assay, KRAS G12D; details: read-out: KRAS G12D FRET IC50
Description: as §1, §2, §3, §4

NRAS G12C = NRAS G12C (Homo sapiens (Human), UniProt P01111+P62937, G12C); test: Ras-Raf disruption/FRET/MOA assay, NRAS G12C; details: read-out: NRAS G12C FRET data IC50
Description: as §1, §2, §3, §4

KRAS G12V = KRAS G12V (Homo sapiens (Human), UniProt P01116+P62937, G12V); test: Ras-Raf disruption/FRET/MOA assay, KRAS G12V; details: read-out: KRAS G12V FRET IC50
Description: as §1, §2, §3, §4

KRAS G12C = KRAS G12C (Homo sapiens (Human), UniProt P01116+P62937, G12C); test: Ras-Raf disruption/FRET/MOA assay, KRAS G12C; details: read-out: KRAS G12C FRET data IC50
Description: as §1, §2, §3, §4

KRAS WT, sequence (P01116 other isoform, or with tags, fused parts or gaps): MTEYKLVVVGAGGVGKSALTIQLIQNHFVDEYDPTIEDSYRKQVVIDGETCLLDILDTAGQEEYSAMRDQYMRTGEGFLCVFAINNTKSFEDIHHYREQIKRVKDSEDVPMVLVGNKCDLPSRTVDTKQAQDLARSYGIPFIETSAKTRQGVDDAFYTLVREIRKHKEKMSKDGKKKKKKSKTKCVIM
KRAS WT, sequence (P62937 whole entry): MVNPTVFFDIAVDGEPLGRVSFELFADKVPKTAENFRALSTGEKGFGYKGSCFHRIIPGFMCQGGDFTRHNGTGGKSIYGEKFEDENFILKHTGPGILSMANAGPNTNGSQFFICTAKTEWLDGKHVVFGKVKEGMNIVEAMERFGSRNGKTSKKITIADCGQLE
KRAS G12S, sequence (P01116 other isoform, or with tags, fused parts or gaps G12S): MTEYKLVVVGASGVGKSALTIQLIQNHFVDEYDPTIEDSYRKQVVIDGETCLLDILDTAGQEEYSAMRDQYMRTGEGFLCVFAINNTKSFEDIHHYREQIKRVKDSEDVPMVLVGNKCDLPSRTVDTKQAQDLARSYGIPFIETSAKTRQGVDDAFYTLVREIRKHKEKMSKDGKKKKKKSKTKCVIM
KRAS G12S, sequence (P62937 whole entry): as the sequence (P62937 whole entry) above
KRAS G13D, sequence (P01116 other isoform, or with tags, fused parts or gaps G13D): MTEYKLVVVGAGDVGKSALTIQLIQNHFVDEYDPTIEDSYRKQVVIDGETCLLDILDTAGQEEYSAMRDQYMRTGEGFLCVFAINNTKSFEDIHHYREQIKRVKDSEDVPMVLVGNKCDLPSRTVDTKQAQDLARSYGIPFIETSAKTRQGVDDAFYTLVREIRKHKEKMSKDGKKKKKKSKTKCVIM
KRAS G13D, sequence (P62937 whole entry): as the sequence (P62937 whole entry) above
KRAS G12C, sequence (P01116-2 other isoform, or with tags, fused parts or gaps G12C): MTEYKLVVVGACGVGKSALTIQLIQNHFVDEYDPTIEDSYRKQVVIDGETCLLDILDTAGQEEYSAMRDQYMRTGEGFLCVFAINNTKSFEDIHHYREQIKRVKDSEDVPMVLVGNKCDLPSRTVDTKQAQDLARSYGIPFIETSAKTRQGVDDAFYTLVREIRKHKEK
KRAS G12C, sequence (P62937 whole entry): as the sequence (P62937 whole entry) above
KRAS G12D, sequence (P01116 other isoform, or with tags, fused parts or gaps G12D): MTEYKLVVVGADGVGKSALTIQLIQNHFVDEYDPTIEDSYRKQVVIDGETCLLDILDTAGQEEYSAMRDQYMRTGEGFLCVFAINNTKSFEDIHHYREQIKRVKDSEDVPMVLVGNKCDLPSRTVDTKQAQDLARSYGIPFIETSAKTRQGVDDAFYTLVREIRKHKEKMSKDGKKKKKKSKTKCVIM
KRAS G12D, sequence (P62937 whole entry): as the sequence (P62937 whole entry) above
KRAS G12V, sequence (P01116 other isoform, or with tags, fused parts or gaps G12V): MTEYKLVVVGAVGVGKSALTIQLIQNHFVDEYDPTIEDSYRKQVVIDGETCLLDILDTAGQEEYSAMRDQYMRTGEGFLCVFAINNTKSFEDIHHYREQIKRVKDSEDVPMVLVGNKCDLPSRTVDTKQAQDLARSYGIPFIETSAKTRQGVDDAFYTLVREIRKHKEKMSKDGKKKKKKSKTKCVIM
KRAS G12V, sequence (P62937 whole entry): as the sequence (P62937 whole entry) above
NRAS G12C, sequence (P01111 whole entry G12C): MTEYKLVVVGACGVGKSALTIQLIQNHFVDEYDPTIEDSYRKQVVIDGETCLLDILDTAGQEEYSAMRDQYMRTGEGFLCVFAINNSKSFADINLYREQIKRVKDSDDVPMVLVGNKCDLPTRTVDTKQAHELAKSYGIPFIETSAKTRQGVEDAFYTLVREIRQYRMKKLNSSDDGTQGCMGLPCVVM
NRAS G12C, sequence (P62937 whole entry): as the sequence (P62937 whole entry) above
KRAS G13C, sequence (P01116 other isoform, or with tags, fused parts or gaps G13C): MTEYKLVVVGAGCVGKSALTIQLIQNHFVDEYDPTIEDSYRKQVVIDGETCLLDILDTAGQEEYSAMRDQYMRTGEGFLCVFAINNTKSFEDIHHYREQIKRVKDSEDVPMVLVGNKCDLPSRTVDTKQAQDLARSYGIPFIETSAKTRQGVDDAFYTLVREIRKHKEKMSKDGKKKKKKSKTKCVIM
KRAS G13C, sequence (P62937 whole entry, the tested form may be a part): as the sequence (P62937 whole entry) above

Compound | IC50 (KRAS G13C) [µM] | IC50 (KRAS G13D) [µM] | IC50 (KRAS G12S) [µM] | IC50 (KRAS WT) [µM] | IC50 (KRAS G12D) [µM] | IC50 (NRAS G12C) [µM] | IC50 (KRAS G12V) [µM] | IC50 (KRAS G12C) [µM]
CCn1c(-c2cccnc2COC)c2c3cc(ccc31)-c1cc(O)cc(c1)C[C@H](NC(=O)[C@H](C(C)C)N(C)C(=O)CNC1=NCCO1)C(=O)N1CCC[C@H](N1)C(=O)OCC(C)(C)C2 [Example 28] | 1 to 10 | 1 to 10 | > 10 | > 10 | > 10 | 1 to 10 | 1 to 10 | 1 to 10
CCn1c(-c2cnccc2COC)c2c3cc(ccc31)-c1cc(O)cc(c1)C[C@H](NC(=O)[C@H](C(C)C)N(C)C(=O)[C@H]1CCN(C(=O)[C@@H]3CO3)C1)C(=O)N1CCC[C@H](N1)C(=O)OCC(C)(C)C2 [Example 31, (3S)—N-((2S)-1-(((6^3S,4S)-1^1-ethyl-25-hydroxy-1^2-(4-(methoxymethyl)pyridin-3-yl)-10,10-dimethyl-5,7-dioxo-6^1,6^2,6^3,6^4,6^5,6^6-hexahydro-1^1H-8-oxa-1 (5,3)-indola-6 (1,3)-pyridazina-2 (1,3)-benzenacycloundecaphane-4-yl)amino)-3-methyl-1-oxobutan-2-yl)-N-methyl-1-((S)-oxirane-2-carbonyl) pyrrolidine-3-carboxamide] | 0.1 to 1 | 1 to 10 | 0.1 to 1 | 1 to 10 | 1 to 10 | 0.1 to 1 | 0.1 to 1 | 0.01 to 0.1
CCn1c(-c2cnccc2COC)c2c3cc(ccc31)-c1cc(O)cc(c1)C[C@H](NC(=O)[C@H](C(C)C)N(C)C(=O)CCN(C)C(=O)[C@@H]1CN1)C(=O)N1CCC[C@H](N1)C(=O)OCC(C)(C)C2 [Example 40] | 0.1 to 1 | 0.1 to 1 | 0.1 to 1 | 0.1 to 1 | 0.1 to 1 | 0.1 to 1 | 0.1 to 1 | 0.1 to 1
CCn1c(-c2cnccc2COC)c2c3cc(ccc31)-c1cc(O)cc(c1)C[C@H](NC(=O)[C@H](C(C)C)N(C)C(=O)N1CCCN(C(=O)[C@H]3CN3)CC1)C(=O)N1CCC[C@H](N1)C(=O)OCC(C)(C)C2 [Example 44] | 0.01 to 0.1 | 0.1 to 1 | 0.1 to 1 | 0.01 to 0.1 | 0.1 to 1 | 0.01 to 0.1 | 0.01 to 0.1 | 0.01 to 0.1
CCn1c(-c2cnccc2COC)c2c3cc(ccc31)-c1cc(O)cc(c1)C[C@H](NC(=O)[C@H](C(C)C)N(C)C(=O)N1CCCN(C(=O)[C@@H]3CN3)CC1)C(=O)N1CCC[C@H](N1)C(=O)OCC(C)(C)C2 [Example 45] | 0.01 to 0.1 | 0.1 to 1 | 0.1 to 1 | 0.01 to 0.1 | 0.1 to 1 | 0.01 to 0.1 | 0.1 to 1 | 0.01 to 0.1
CCn1c(-c2cnccc2COC)c2c3cc(ccc31)-c1cc(O)cc(c1)C[C@H](NC(=O)[C@H](C(C)C)N(C)C(=O)c1ccc(NC(=O)[C@@H]3CN3)cn1)C(=O)N1CCC[C@H](N1)C(=O)OCC(C)(C)C2 [Example 46] | 0.1 to 1 | 1 to 10 | 0.1 to 1 | 1 to 10 | 1 to 10 | 0.1 to 1 | 1 to 10 | 0.1 to 1
CCn1c(-c2cnccc2COC)c2c3cc(ccc31)-c1cc(O)cc(c1)C[C@H](NC(=O)[C@@H](CN(C)C(=O)[C@@H]1CN1)C(C)C)C(=O)N1CCC[C@H](N1)C(=O)OCC(C)(C)C2 [Example 60] | > 10 | > 10 | > 10 | > 10 | > 10 | > 10 | 1 to 10 | 1 to 10
CCn1c(-c2cnccc2COC)c2c3cc(ccc31)-c1cccc(c1)C[C@H](NC(=O)[C@H](C(C)C)N(C)C(=O)CCN=C=Nc1ccc(N(C)C)cc1)C(=O)N1CCC[C@H](N1)C(=O)OCC(C)(C)C2 [Example 66] | 0.1 to 1 | 1 to 10 | 1 to 10 | 1 to 10 | 1 to 10 | 0.1 to 1 | 1 to 10 | 0.1 to 1
CCn1c(-c2cnccc2COC)c2c3cc(ccc31)-c1cccc(c1)C[C@H](NC(=O)[C@H](C(C)C)N(C)C(=O)CCN=C=Nc1ccc(N3CCOCC3)cc1)C(=O)N1CCC[C@H](N1)C(=O)OCC(C)(C)C2 [Example 67] | 1 to 10 | 1 to 10 | 1 to 10 | 1 to 10 | 1 to 10 | 0.1 to 1 | 1 to 10 | 0.1 to 1
CCn1c(-c2cnccc2COC)c2c3cc(ccc31)-c1cc(O)cc(c1)C[C@H](NC(=O)[C@H](C(C)C)N(C)C(=O)CN1C(=O)[C@H]3N[C@H]3C1=O)C(=O)N1CCC[C@H](N1)C(=O)OCC(C)(C)C2 [Example 98] | 0.1 to 1 | 1 to 10 | 1 to 10 | 0.1 to 1 | 1 to 10 | 1 to 10 | 1 to 10 | 0.1 to 1
CCn1c(-c2cnccc2COC)c2c3cc(ccc31)-c1cc(O)cc(c1)C[C@H](NC(=O)[C@@H](CN(C)C(=O)[C@H]1CN1)C(C)C)C(=O)N1CCC[C@H](N1)C(=O)OCC(C)(C)C2 [Example 99] | > 10 | > 10 | > 10 | > 10 | > 10 | > 10 | 1 to 10 | 1 to 10
CCn1c(-c2cnccc2COC)c2c3cc(ccc31)-c1cc(O)cc(c1)C[C@H](NC(=O)[C@H](C(C)C)N(C)C(=O)CCNC1=NCCO1)C(=O)N1CCC[C@H](N1)C(=O)OCC(C)(C)C2 [Example 120] | 0.01 to 0.1 | 0.01 to 0.1 | 0.1 to 1 | 0.01 to 0.1 | 0.1 to 1 | 0.1 to 1 | 0.1 to 1 | 0.1 to 1

Next, values leading:

IC50 (KRAS G13C) [µM] | IC50 (KRAS G13D) [µM] | IC50 (KRAS G12S) [µM] | IC50 (KRAS WT) [µM] | IC50 (KRAS G12D) [µM] | IC50 (NRAS G12C) [µM] | IC50 (KRAS G12V) [µM] | IC50 (KRAS G12C) [µM] | Compound
1 to 10 | > 10 | 1 to 10 | 1 to 10 | 1 to 10 | 1 to 10 | 1 to 10 | 1 to 10 | CCn1c(-c2cnccc2COC)c2c3cc(ccc31)-c1cccc(c1)C[C@H](NC(=O)[C@H](C(C)C)N(C)C(=O)CCN=C=Nc1ccccc1COC)C(=O)N1CCC[C@H](N1)C(=O)OCC(C)(C)C2 [Example 63]
> 10 | > 10 | > 10 | > 10 | > 10 | 0.1 to 1 | 1 to 10 | 0.1 to 1 | CCn1c(-c2cnccc2COC)c2c3cc(ccc31)-c1cccc(c1)C[C@H](NC(=O)[C@H](C(C)C)N(C)C(=O)CCN=C=NCc1c(OC)cccc1OC)C(=O)N1CCC[C@H](N1)C(=O)OCC(C)(C)C2 [Example 75]
1 to 10 | > 10 | 1 to 10 | 1 to 10 | 1 to 10 | 0.1 to 1 | 1 to 10 | 0.1 to 1 | CCn1c(-c2cnccc2COC)c2c3cc(ccc31)-c1cccc(c1)C[C@H](NC(=O)[C@H](C(C)C)N1CC[C@@H](CN=C=NCCOC)C1)C(=O)N1CCC[C@H](N1)C(=O)OCC(C)(C)C2 [Example 80]
> 10 | > 10 | > 10 | > 10 | > 10 | 1 to 10 | 1 to 10 | 0.1 to 1 | CCn1c(-c2cnccc2COC)c2c3cc(ccc31)-c1cccc(c1)C[C@H](NC(=O)[C@H](C(C)C)N1CC[C@H](CN=C=Nc3ccc(OC)cc3)C1)C(=O)N1CCC[C@H](N1)C(=O)OCC(C)(C)C2 [Example 81]
0.1 to 1 | > 10 | 1 to 10 | 0.1 to 1 | 1 to 10 | 0.1 to 1 | 1 to 10 | 0.1 to 1 | CCn1c(-c2cccnc2[C@H](C)OC)c2c3cc(ccc31)-c1cccc(c1)C[C@H](NC(=O)[C@H](C(C)C)N1CC[C@@H](CN=C=NCCOC)C1)C(=O)N1CCC[C@H](N1)C(=O)OCC(C)(C)C2 [Example 121]
